Legend:
[1] = target: T1, Amine oxidase [flavin-containing] A (Homo sapiens, UniProt P21397); test: Inhibition of human MAO-A preincubated for 15 mins followed by p-tyramine substrate addition and measured after 20 mins by Amplex red reagent based fluorescence assay
T1 sequence (P21397 whole entry): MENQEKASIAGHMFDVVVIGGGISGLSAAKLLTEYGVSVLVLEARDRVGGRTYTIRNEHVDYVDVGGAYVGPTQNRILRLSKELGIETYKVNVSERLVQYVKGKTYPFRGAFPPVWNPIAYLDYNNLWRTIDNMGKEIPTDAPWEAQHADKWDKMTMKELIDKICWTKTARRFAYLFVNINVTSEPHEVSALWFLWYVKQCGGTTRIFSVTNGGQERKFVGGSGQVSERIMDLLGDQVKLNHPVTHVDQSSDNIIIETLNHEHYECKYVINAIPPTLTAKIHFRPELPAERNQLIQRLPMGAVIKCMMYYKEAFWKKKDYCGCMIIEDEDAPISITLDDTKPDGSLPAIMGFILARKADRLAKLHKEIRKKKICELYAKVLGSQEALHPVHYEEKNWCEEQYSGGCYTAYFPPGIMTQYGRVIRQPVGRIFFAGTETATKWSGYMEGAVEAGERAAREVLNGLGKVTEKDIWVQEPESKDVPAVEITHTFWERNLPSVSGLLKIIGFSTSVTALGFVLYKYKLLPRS

[2] = target: T2, Amine oxidase [flavin-containing] B (Homo sapiens, UniProt P27338)
T2 sequence (P27338 whole entry): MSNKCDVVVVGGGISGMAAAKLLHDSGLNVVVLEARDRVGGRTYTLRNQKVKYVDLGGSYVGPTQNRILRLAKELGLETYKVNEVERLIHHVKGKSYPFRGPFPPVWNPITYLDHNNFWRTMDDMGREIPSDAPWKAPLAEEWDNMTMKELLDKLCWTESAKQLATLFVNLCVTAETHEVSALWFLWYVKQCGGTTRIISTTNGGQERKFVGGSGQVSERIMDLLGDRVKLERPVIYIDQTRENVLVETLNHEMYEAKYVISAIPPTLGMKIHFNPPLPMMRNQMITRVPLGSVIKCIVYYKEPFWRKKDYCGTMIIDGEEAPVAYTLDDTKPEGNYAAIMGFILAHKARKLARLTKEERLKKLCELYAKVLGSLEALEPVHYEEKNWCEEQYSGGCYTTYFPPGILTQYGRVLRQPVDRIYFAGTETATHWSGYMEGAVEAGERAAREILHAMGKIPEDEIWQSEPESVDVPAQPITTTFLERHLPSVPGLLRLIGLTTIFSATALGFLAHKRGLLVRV

Homo sapiens = organism: Homo sapiens; test: Selectivity ratio of IC50 for human MAO-A to IC50 for human MAO-B
[3] = Antioxidant activity assessed as inhibition of DPPH free radical after 30 mins by UV-Visible spectrophotometric analysis; type: functional
[4] = Antioxidant activity assessed as ABTS radical cation scavenging activity by measuring trolox equivalents after 150 mins; type: functional
[5] = Antioxidant activity assessed as ferric ion reduction by measuring trolox equivalents after 3 to 5 mins by FRAP assay; type: functional
in vitro = test: in vitro; design: dose or concentration left out as unconfirmed; conditions: PAMPA
Description: Effective permeability of the compound at 100 mg/ml incubated for 16 hrs by PAMPA-BBB assay

Row | IC50 [1] [µM] | IC50 [2] [µM] | Ratio IC50 (Homo sapiens) | IC50 [3] [µM] | Papp at 16 h (in vitro) [×10⁻⁶ cm/s] | Compound | Activity [4] [equiv] | Activity [5] [equiv]
1 | 8.93 | 2.39 | 3.74 | 76.8 | – | Oc1ccc([C@H]2Oc3ccc(/C=C/c4cc(O)cc(O)c4)cc3[C@@H]2c2cc(O)cc(O)c2)cc1 | – | –
2 | 10.6 | 1.9 | 5.58 | 185 | – | CO[C@@H](c1ccc(O)cc1)[C@H](Oc1ccc(/C=C/c2cc(O)c3c(c2)OC(C)(C)CC3)cc1)c1cc(O)c(CC=C(C)C)c(O)c1 | 0.29 | 1.04
3 | 11.3 | 3.62 | 3.1 | 73.3 | – | CC(C)=CCc1c(O)cc(/C=C/c2ccc(O)cc2)cc1O [ARACHIDIN-2] | 1.23 | 1.03
4 | – | – | – | 49.8 | – | Cc1c(C)c2c(c(C)c1O)CCC(C)(C(=O)O)O2 (stereo not given) [TROLOX] | 1 | 1
5 | – | – | – | – | 13.3 | C[C@]12CC[C@@H]3c4ccc(O)cc4CC[C@H]3[C@@H]1CC[C@@H]2O [ESTRADIOL] | – | –
6 | 18.9 | 9.23 | 2.05 | 150 | – | CC(C)=CCc1c(O)cc([C@@H](Oc2ccc(/C=C/c3cc(O)c4c(c3)OC(C)(C)CC4)cc2)[C@@H](C)c2ccc(O)cc2)cc1O | 0.89 | 1.26

Row | Compound | IC50 [1] [µM] | IC50 [2] [µM] | Ratio IC50 (Homo sapiens) | IC50 [3] [µM] | Papp at 16 h (in vitro) [×10⁻⁶ cm/s] | Activity [4] [equiv] | Activity [5] [equiv]
7 | Oc1ccc(/C=C/c2cc(O)cc(O)c2)cc1 [RESVERATROL] | – | 5.01 | – | 79.9 | – | 1.07 | 0.98
